# Reference: article PMC4450297, “Screening Active Compounds from Garcinia Species Native to China Reveals Novel Compounds Targeting the STAT/JAK Signaling Pathway” (BioMed Research International, 2015)
# How the values were obtained:
# NCI-H1650 = test: Cell proliferation assay (CellTiter-Glo); type: cell-based, human; conditions: Homo sapiens, NCI-H1650, 72 h, NCI-H1650 cells, 20 μM to 0.009 μM in serial 3-fold dilutions
# Procedure: (§1) All cells were obtained from the cell bank of the American Type Culture Collection (ATCC) and cultured in the supplier's recommended media supplemented with 10% FBS. The cell panel screen was measured using the CellTiter-Glo assay (Promega, Madison, WI) following a standard protocol. Briefly, cancer cells were seeded in 96-well plates and cultured overnight at 37°C with or without 5% CO2 in an incubator. Each compound was dissolved with limited DMSO and diluted to a certain concentration with culture medium and then added to the corresponding well of the cell plate. The final concentration of compound was 20 μM. The control cells (without treatment) received the same amount of DMSO and were incubated under the same conditions. After 72 h cultivation, 100 μL of the CellTiter-Glo reagent was added directly to each well for 10-minute incubation. The plate was then read on a FlexStation 3 microplate luminometer (Molecular Devices, USA) to monitor the luminescence signal generated by the luciferase-catalyzed reaction of luciferin and ATP. The percent of growth inhibition was calculated using the following formula: (untreated cells − treated cells)/(untreated cells − background without cells) ∗ 100.
# (§2) For proliferation assays, the CellTiter-Glo assay (Promega, Madison, WI) was used to evaluate the proliferation of cancer cells treated with test compounds as described above. Each compound was dissolved in limited DMSO and diluted to various concentrations with culture medium and then added to the corresponding wells. A dose-response curve was plotted, and the IC50 was calculated using XLfit software.
# NCI-H1993 = test: Cell proliferation assay (CellTiter-Glo); type: cell-based; conditions: Homo sapiens, NCI-H1993 cells, 72 h
# Procedure: as §1, §2
# NCI-H838 = test: Cell proliferation assay (CellTiter-Glo); type: cell-based; conditions: Homo sapiens, NCI-H838 cells, 72 h
# Procedure: as §1, §2
# A549 = test: Cell proliferation assay (CellTiter-Glo); type: cell-based; conditions: Homo sapiens, A549 cells, 72 h
# Procedure: as §1, §2
# SW954 = test: Cell proliferation assay (CellTiter-Glo); type: cell-based; conditions: Homo sapiens, SW 954, SW954 cells, 72 h
# Procedure: as §1, §2
# CHP212 = test: Cell proliferation assay (CellTiter-Glo); type: cell-based; conditions: Homo sapiens, CHP-212, CHP212 cells, 72 h
# Procedure: as §1, §2
# SW1353 = test: Cell proliferation assay (CellTiter-Glo); type: cell-based; conditions: Homo sapiens, SW1353 cells, 72 h
# Procedure: as §1, §2
# HuVec = test: Cell proliferation assay (CellTiter-Glo), control cell line; type: cell-based; conditions: Homo sapiens, 72 h
# Procedure: as §1, §2
# [1] = tested on: STAT3 activation in multiple cancer cell lines; parameters: method as in PMID 21490133; conditions: cited from earlier work
# NCI-H28 = test: Cell panel screen (CellTiter-Glo); type: cell-based, human; conditions: NCI-H28 (Lung), 20 micromolar, 72 hrs
# Outline: (§3)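 Values are % growth inhibition: the signal of treated wells was set against untreated (DMSO) wells, with cell-free wells as background. Treatment lasted 72 h at 20 μM final compound, and ATP content was read by luminescence.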
# BT-474 = test: Cell panel screen (CellTiter-Glo); type: cell-based, human; conditions: BT-474 (Breast), 20 micromolar, 72 hrs
# Outline: as §3
# C8166 = test: Cell panel screen (CellTiter-Glo); type: cell-based, human; conditions: C8166 (Leukemia), 20 micromolar, 72 hrs
# Outline: as §3
# NCI-H1694 = test: Cell panel screen (CellTiter-Glo); type: cell-based, human; conditions: NCI-H1694 (Lung), 20 micromolar, 72 hrs
# Outline: as §3
# J82 = test: Cell panel screen (CellTiter-Glo); type: cell-based, human; conditions: J82 (Urinary bladder), 20 micromolar, 72 hrs
# Outline: as §3
# NCI-H1623 = test: Cell panel screen (CellTiter-Glo); type: cell-based, human; conditions: NCI-H1623 (Lung), 20 micromolar, 72 hrs
# Outline: as §3
# HCC1937 = test: Cell panel screen (CellTiter-Glo); type: cell-based, human; conditions: HCC1937 (Breast), 20 micromolar, 72 hrs
# Outline: as §3
# Colo 205 = test: Cell panel screen (CellTiter-Glo); type: cell-based, human; conditions: Colo 205, 20 micromolar, 72 hrs
# Outline: as §3
# Bel-7402 = test: Cell panel screen (CellTiter-Glo); type: cell-based, human; conditions: Bel-7402 (Liver), 20 micromolar, 72 hrs
# Outline: as §3
# A498 = test: Cell panel screen (CellTiter-Glo); type: cell-based, human; conditions: A498 (listed under Lung), 20 micromolar, 72 hrs
# Outline: as §3
# NCI-H1770 = test: Cell panel screen (CellTiter-Glo); type: cell-based, human; conditions: NCI-H1770 (Lung), 20 micromolar, 72 hrs
# Outline: as §3
# T47D = test: Cell panel screen (CellTiter-Glo); type: cell-based, human; conditions: T47D (Breast), 20 micromolar, 72 hrs
# Outline: as §3
# Panc 03.27 = test: Cell panel screen (CellTiter-Glo); type: cell-based, human; conditions: Panc 03.27 (Pancreas), 20 micromolar, 72 hrs
# Outline: as §3
# ZR-75-30 = test: Cell panel screen (CellTiter-Glo); type: cell-based, human; conditions: ZR-75-30 (Breast), 20 micromolar, 72 hrs
# Outline: as §3
# HCC1599 = test: Cell panel screen (CellTiter-Glo); type: cell-based, human; conditions: HCC1599 (Breast), 20 micromolar, 72 hrs
# Outline: as §3
# T98G = test: Cell panel screen (CellTiter-Glo); type: cell-based, human; conditions: T98G (Brain), 20 micromolar, 72 hrs
# Outline: as §3
# HEC-1-A = test: Cell panel screen (CellTiter-Glo); type: cell-based, human; conditions: HEC-1-A (Uterus), 20 micromolar, 72 hrs
# Outline: as §3
# HPAF-II = test: Cell panel screen (CellTiter-Glo); type: cell-based, human; conditions: HPAF-II (Pancreas), 20 micromolar, 72 hrs
# Outline: as §3
# NCI-H2347 = test: Cell panel screen (CellTiter-Glo); type: cell-based, human; conditions: NCI-H2347 (Lung), 20 micromolar, 72 hrs
# Outline: as §3
# ChaGo-K-1 = test: Cell panel screen (CellTiter-Glo); type: cell-based, human; conditions: ChaGo-K-1 (Lung), 20 micromolar, 72 hrs
# Outline: as §3
# BT-549 = test: Cell panel screen (CellTiter-Glo); type: cell-based, human; conditions: BT-549 (Breast), 20 micromolar, 72 hrs
# Outline: as §3
# C3A = test: Cell panel screen (CellTiter-Glo); type: cell-based, human; conditions: C3A (Liver), 20 micromolar, 72 hrs
# Outline: as §3
# NCI-H524 = test: Cell panel screen (CellTiter-Glo); type: cell-based, human; conditions: NCI-H524 (Lung), 20 micromolar, 72 hrs
# Outline: as §3
# CCF-STTG1 = test: Cell panel screen (CellTiter-Glo); type: cell-based, human; conditions: CCF-STTG1 (Brain), 20 micromolar, 72 hrs
# Outline: as §3
# HCC1569 = test: Cell panel screen (CellTiter-Glo); type: cell-based, human; conditions: HCC1569 (Breast), 20 micromolar, 72 hrs
# Outline: as §3
# A704 = test: Cell panel screen (CellTiter-Glo); type: cell-based, human; conditions: A704 (Kidney), 20 micromolar, 72 hrs
# Outline: as §3
# RL95 = test: Cell panel screen (CellTiter-Glo); type: cell-based, human; conditions: RL95 (Uterus), 20 micromolar, 72 hrs
# Outline: as §3
# CW-2 = test: Cell panel screen (CellTiter-Glo); type: cell-based, human; conditions: CW-2 (Colon), 20 micromolar, 72 hrs
# Outline: as §3
# HT-1197 = test: Cell panel screen (CellTiter-Glo); type: cell-based, human; conditions: HT-1197 (Urinary bladder), 20 micromolar, 72 hrs
# Outline: as §3
# NCI-H2405 = test: Cell panel screen (CellTiter-Glo); type: cell-based, human; conditions: NCI-H2405 (Lung), 20 micromolar, 72 hrs
# Outline: as §3
# TCCSUP = test: Cell panel screen (CellTiter-Glo); type: cell-based, human; conditions: TCCSUP (Urinary bladder), 20 micromolar, 72 hrs
# Outline: as §3
# HGC-27 = test: Cell panel screen (CellTiter-Glo); type: cell-based, human; conditions: HGC-27 (Stomach), 20 micromolar, 72 hrs
# Outline: as §3
# M059J = test: Cell panel screen (CellTiter-Glo); type: cell-based, human; conditions: M059J (Brain), 20 micromolar, 72 hrs
# Outline: as §3
# MSTO-211-H = test: Cell panel screen (CellTiter-Glo); type: cell-based, human; conditions: MSTO-211-H (Lung), 20 micromolar, 72 hrs
# Outline: as §3
# SW13 = test: Cell panel screen (CellTiter-Glo); type: cell-based, human; conditions: SW13 (Adrenal gland), 20 micromolar, 72 hrs
# Outline: as §3
# HCC1395 = test: Cell panel screen (CellTiter-Glo); type: cell-based, human; conditions: HCC1395 (Breast), 20 micromolar, 72 hrs
# Outline: as §3
compound,measurement,setting,value
"CN[C@@H]1C[C@H]2O[C@@](C)([C@@H]1OC)n1c3ccccc3c3c4c(c5c6ccccc6n2c5c31)C(=O)NC4 [Staurosporine, staurosporine, reference compound]",IC50,NCI-H1650,22 ± 4 nM
same,IC50,NCI-H1993,21 ± 7 nM
same,IC50,NCI-H838,11 ± 4 nM
same,IC50,A549,8 ± 2 nM
same,IC50,SW954,6 ± 1 nM
same,IC50,CHP212,4 ± 1 nM
same,IC50,SW1353,4 ± 1 nM
same,IC50,HuVec,4 ± 2 nM
CC(C)=CCC[C@]1(C)C=Cc2c(O)c3c(c(CC=C(C)C)c2O1)O[C@]12C(=C[C@@H]4C[C@H]1C(C)(C)O[C@@]2(C/C=C(/C)C(=O)O)C4=O)C3=O [gambogic acid],STAT3 activation upon IL-6 treatment,[1],able to inhibit STAT3 activation
O=c1c2ccc(O)c(O)c2oc2cccc(O)c12 [gl-23],Percent Inhibition,NCI-H28,-10%
same,Percent Inhibition,BT-474,-16%
same,Percent Inhibition,C8166,-1%
same,Percent Inhibition,NCI-H1694,-9%
same,Percent Inhibition,J82,-2%
same,Percent Inhibition,NCI-H1623,0%
same,Percent Inhibition,HCC1937,-1%
same,Percent Inhibition,Colo 205,-5%
same,Percent Inhibition,Bel-7402,-16%
same,Percent Inhibition,A498,3%
same,Percent Inhibition,NCI-H1770,-11%
same,Percent Inhibition,T47D,-4%
same,Percent Inhibition,Panc 03.27,-5%
same,Percent Inhibition,ZR-75-30,16%
same,Percent Inhibition,HCC1599,18%
same,Percent Inhibition,T98G,-2%
same,Percent Inhibition,HEC-1-A,-6%
same,Percent Inhibition,HPAF-II,-5%
same,Percent Inhibition,NCI-H2347,-8%
same,Percent Inhibition,ChaGo-K-1,-22%
same,Percent Inhibition,BT-549,-16%
same,Percent Inhibition,C3A,-1%
same,Percent Inhibition,NCI-H524,-30%
same,Percent Inhibition,CCF-STTG1,-1%
same,Percent Inhibition,HCC1569,0%
same,Percent Inhibition,A704,-11%
same,Percent Inhibition,RL95,-20%
same,Percent Inhibition,CW-2,-3%
same,Percent Inhibition,HT-1197,-11%
same,Percent Inhibition,NCI-H2405,-14%
same,Percent Inhibition,TCCSUP,-5%
same,Percent Inhibition,HGC-27,-6%
same,Percent Inhibition,M059J,-5%
same,Percent Inhibition,MSTO-211-H,-25%
same,Percent Inhibition,SW13,-10%
same,Percent Inhibition,HCC1395,-11%
